According to patent publication US7348315B2, “Methods of treating heart failure with modified ATP, ADP and AMP compounds” (priority 1995, dated 2008):

Key:
[1] = system: cardiac ventricular myocytes; experiment: Contractile amplitude of cultured cardiac ventricular myocytes (optico-video motion detection); assay type: cell-based, chick; conditions: for ability to stimulate an increase in contractile amplitude: FIGS. 1a-1d; for desensitization of the positive inotropic response to ATP, ADPβS and UTP after pre-exposure: pre-exposure 100 μM, 60 minutes (2-methylthio ATP) or three hours (UTP); for maximal % increase in contractile amplitude: ventricular myocytes (chick embryo 14 days in ovo / adult rat), mean ± SE
Source text: […] Sen, L., Liang, B. T., Colucci, W. S., Smith, T. W., Circ. Res. 67:1182-1192 (1990), modified to include the use of a high-speed peristaltic pump (Masterflex from Cole-Palmer/Spectrum), choice of lots of collagenase, hyaluronidase and protease that give the highest proportion of rod-shaped myocytes, inclusion of bovine serum albumin containing various enzymes, and pre-plating with laminin-coated plates or glass coverslips (for contractility measurement) to eliminate damaged, rounded up myocytes. Specifically, hearts from Sprague-Dawley rats were perfused in a retrograde manner for 5 minutes in Krebs-Henseleit (KH) bicarbonate buffer containing 118 mM NaCl, 4.6 mM KCl, 1.2 mM MgSO4, 1.25 mM CaCl2, 1.2 mM KH2PO4, 25 mM NaHCO3, and 11 mM glucose, gassed with 95% O2/5% CO2/at pH 7.4 (37° C., and an osmolality of 287 mosm/liter). The perfusion buffer was changed to nominally Ca^2+-free KH buffer for 5 min to arrest spontaneous beating. The heart was then perfused with the Ca^2+-free KH buffer containing 0.05% collagenase (Worthington) and 0.03% hyaluronidase (Sigma Chem. Co., St. Louis, Mo.) for 20 min. After removing the atria and the great vessels, the ventricular tissue was finely minced in the same collagenase/hyaluronidase buffer described above except that trypsin (0.02 mg/ml, Sigma) and deoxyribonuclease (0.02 mg/ml, Sigma) was also added. The minced tissue was further incubated in this buffer at 37° C. with shaking to facilitate dissociation of individual ventricular myocytes. The dissociated cells containing some damaged cells were filtered and layered twice over a 6% bovine serum albumin gradient. The rod-shaped healthy heart cells sedimented more easily than the round damaged cells. After the second sedimentation through the 6% BSA gradient, the final pellet contains more than 90% rod-shaped heart cells.
Ventricular myocytes were cultured from chick embryos 14 days in ovo according to known procedures. Briefly, isolated ventricular myocytes from chick embryos 14 in ovo were prepared in calcium- and magnesium-free Hanks' balanced salt sodium (HBSS) containing 0.025% trypsin (GIBCO, Grand Island, N.Y.). After neutralization of trypsin medium containing horse serum and HBSS, cells were centrifuged and resuspended in culture medium containing 6% fetal bovine serum, 40% Medium 199 (GIBCO), 0.1% penicillin/streptomycin, and a salt solution. The final concentrations in the culture medium (in mmol/L) were Na 142, K 3.3, Mg 0.7, Ca 1.4, Cl 130, HCO3 16.4, and glucose 5.5. Cells were plated at a density of 400,000 cell per ml and cultivated in a humidified 5% CO2-95% […]
The cell isolation procedure was generally that of Kelly, R. A., Eid, H., Kramer, B. K., O'Neill, M., Liang, B. T., Reers, M., Smith, T. W., J. Clin. Invest. 86:1164-1171 (1990), […] Cells became confluent on day 3 in culture and contractility measurement was carried out on that day.
Measurement of contractile amplitude in cultured ventricular cells was carried out generally according to the methods of Xu, D., Kong, H., Liang, B. T., Circ. Res. 70:56-65 (1992), and Barry, W. H., and Smith, T. W., J. Physiol. (Lond) 325:243-260 (1982). […]

[2] = system: working rat heart; experiment: Intact working rat heart; conditions: FIG. 11
Experimental: For the working heart model, a column of KHS buffer produced a constant hydrostatic pressure of 65 mmHg (for rat) or 55 mmHg (for mice). The opening of the pulmonary vein was connected via a PE-90 (for rat) or PE-50 (for mice) catheter to a reservoir of KHS buffer that maintained a “venous return” flow into the left atrium of about 12 mL/min (rat) or 5 mL/min (mice) under the resting condition. The venous return was maintained by a constant level of hydrostatic pressure (7-8 mm Hg) yielding a steady rate of venous return. The entering KHS buffer was then switched from retrograde to antegrade perfusion and produced a work-performing heart preparation. […] Aortic flow was the amount of perfusate exiting the aortic cannula measured in […]. […]
The pressure recordings were channeled from amplifiers which had been precalibrated by a transducer simulator/calibrator (Ken Scientific Corp., Litchfield, Conn.). […] Data were analyzed by computer software (WorkBench for Windows+, Kent Scientific Corp.) designed for an IBM-compatible computer (Dell). […] Data points under each basal condition and during infusion of each drug concentration were summarized as means±SE, and the statistical differences were analyzed by one-way ANOVA with post-test comparison and t test.

[3] = system: isolated mouse heart; experiment: Work-performing isolated mouse heart; conditions: 100 nM, vs basal; for increase in +dP/dt (cardiac muscle contractility) / increase in cardiac output (C.O.) / increase in −dP/dt (diastolic relaxation): P less than 0.05, paired t test
Experimental: perfusion in the isolated heart was carried out using the work-performing model described as follows: For the working heart model, a column of KHS buffer produced a constant hydrostatic pressure of 65 mmHg (for rat) or 55 mmHg (for mice). The opening of the pulmonary vein was connected via a PE-90 (for rat) or PE-50 (for mice) catheter to a reservoir of KHS buffer that maintained a “venous return” flow into the left atrium of about 12 mL/min (rat) or 5 mL/min (mice) under the resting condition. The venous return was maintained by a constant level of hydrostatic pressure (7-8 mm Hg) yielding a steady rate of venous return. The entering KHS buffer was then switched from retrograde to antegrade perfusion and produced a work-performing heart preparation. The perfusate exited the left ventricle through the aorta cannula, which was connected to the aortic column of KHS buffer with a hydrostatic pressure of 55 mmHg (for mice) or 65 mmHg (for rat). Aortic flow was the amount of perfusate exiting the aortic cannula measured in millimeters per minute. Coronary flow, in millimeters per minute, was collected via opening of the pulmonary artery. The sum of aortic flow and coronary flow was the cardiac output. A 23 gauge catheter was inserted into the left ventricle and its distal end is connected to a pressure transducer to record left ventricular pressures and ±dP/dt. The left ventricular developed pressure (LVDP) was the difference between LV systolic and diastolic pressure. A side port of the reservoir allowed direct infusion of beta-adrenergic agonist isoproterenol or P2X receptor agonist 2-[…] into the KHS buffer that entered the left ventricle via the left atrium, which then entered the coronary circulation following ejection of drug-containing perfusate into the aorta. The pressure recordings were channeled from amplifiers which had been precalibrated by a transducer simulator/calibrator (Ken Scientific Corp., Litchfield, Conn.). The signals were then digitized via a PCM-DAS 16S/330 interface board (Computer Boards, Inc. Mansfield, Mass.) which provided a high level of performance with analog input channels and digital channels. Data were analyzed by computer software (WorkBench for Windows+, Kent Scientific Corp.) designed for an IBM-compatible computer (Dell). […] Data acquisition, signal display (LV pressures, ±dP/dt, heart rate), and data analysis programs were run concurrently from the hard drive of the computer. Data points under each basal condition and during infusion of each drug concentration were summarized as means±SE, and the statistical differences were analyzed by one-way ANOVA with post-test comparison and […] and ISO (isoproterenol) were present at 100 nM. Basal represented the baseline values obtained before infusion with the agonists. Date were the means and standard errors of those obtained in 5 rats.

CSc1nc(N)c2ncn([C@@H]3O[C@H](COP(=O)(O)OP(=O)(O)O)[C@@H](O)[C@H]3O)c2n1 [2-methylthio ADP]
effect on basal contractile amplitude (positive inotropic effect) ([1]; myocytes paced at 2 HZ, FIG. 7): pronounced positive inotropic effect

CSc1nc(N)c2ncn([C@@H]3O[C@H](COP(=O)(O)OP(=O)(O)OP(=O)(O)O)[C@@H](O)[C@H]3O)c2n1 [2-methylthio ATP]
ability to stimulate an increase in contractile amplitude [1]: capable of stimulating an increase in contractile amplitude
desensitization of the positive inotropic response to ATP, ADPβS and UTP after pre-exposure [1]: desensitized the positive inotropic response
maximal % increase in contractile amplitude [1]: 54±7%
+dP/dt (index of muscle contractility) [2]: increases
−dP/dt (index of diastolic relaxation) [2]: increases
heart rate (H.R.) [3]: did not change the heart rate
increase in +dP/dt (cardiac muscle contractility) [3]: statistically significant
increase in cardiac output (C.O.) [3]: statistically significant
increase in −dP/dt (diastolic relaxation) [3]: statistically significant

Nc1ncnc2c1ncn2[C@@H]1O[C@H](COP(=O)(O)OP(=O)(O)O)[C@@H](O)[C@H]1O [ADP]
maximal % increase in contractile amplitude [1]: 47.7±10%

Nc1ncnc2c1ncn2[C@@H]1O[C@H](COP(=O)(O)OP(O)(O)=S)[C@@H](O)[C@H]1O [ADPβS]
maximal % increase in contractile amplitude [1]: 76±15%

Nc1ncnc2c1ncn2[C@@H]1O[C@H](COP(=O)(O)O)[C@@H](O)[C@H]1O [AMP]
maximal % increase in contractile amplitude [1]: 9.6±4%

Nc1ncnc2c1ncn2[C@@H]1O[C@H](COP(=O)(O)OP(=O)(O)OP(=O)(O)O)[C@@H](O)[C@H]1O [ATP]
maximal % increase in contractile amplitude [1]: 89.7±9%

Nc1ncnc2c1ncn2[C@@H]1O[C@H](COP(=O)(O)OP(=O)(O)NP(=O)(O)O)[C@@H](O)[C@H]1O [App(NH)p, adenylyl imidodiphospate]
effect on contractile amplitude in presence of adenosine receptor antagonist 8-SPT ([1]; App(NH)p plus 8-sulfophenyltheophylline, FIG. 8): not mediated via the adenosine receptor
effect on basal contractile amplitude (positive inotropic effect) ([1]; FIG. 8): pronounced positive inotropic effect

O=c1ccn([C@@H]2O[C@H](COP(=O)(O)OP(=O)(O)OP(=O)(O)O)[C@@H](O)[C@H]2O)c(=O)[nH]1 [UTP]
ability to stimulate an increase in contractile amplitude [1]: not capable of producing the same effect
desensitization of the positive inotropic response to ATP, ADPβS and UTP after pre-exposure [1]: failed to cause such desensitization
maximal % increase in contractile amplitude [1]: 22±4%

Nc1ncnc2c1ncn2[C@@H]1O[C@H](COP(N)(=O)O)[C@@H](O)[C@H]1O [adenosine 5′monophosphoramidate]
effect on basal contractile amplitude (positive inotropic effect) ([1]; myocytes paced at 2 HZ, FIG. 7): pronounced positive inotropic effect

Nc1ncnc2c1ncn2[C@@H]1O[C@H](CO)[C@@H](O)[C@H]1O [adenosine]
maximal % increase in contractile amplitude [1]: 15±4%

CC(C)NCC(O)c1ccc(O)c(O)c1 (stereo not shown) [isoproterenol]
heart rate (H.R.) [3]: significant stimulation
increase in +dP/dt (cardiac muscle contractility) [3]: statistically significant
increase in cardiac output (C.O.) [3]: statistically significant
increase in −dP/dt (diastolic relaxation) [3]: statistically significant

Nc1ncnc2c1ncn2[C@@H]1O[C@H](COP(=O)(O)CP(=O)(O)OP(=O)(O)O)[C@@H](O)[C@H]1O [α,β-methylene ATP]
ability to stimulate an increase in contractile amplitude [1]: not capable of producing the same effect
maximal % increase in contractile amplitude [1]: −13±5%

adenylyl 5′phosphoramidate
effect on basal contractile amplitude (positive inotropic effect) ([1]; myocytes paced at 2 HZ, FIG. 7): pronounced positive inotropic effect
